This assay has as its system GM3. As to the kind of experiment: GM3 Elisa assay. Particulars: 48 h, Table 1; B16-FO cells, 2 days incubation; read-out: IC50_uM_Mean. In kind it is cell-based. On the procedure: B16-FO cells from ATCC (American Tissue Culture Collection) were grown in DMEM media (ATCC) with 10% Fetal Bovine Serum (Hyclone) and Pen/Step/Glutamine (Biowhittaker). 4000 cells per well were plated on collagen coated plates (BD) and allowed to attach for 6 hours in an incubator (37 degrees, 5% CO2). After 6 hours the compounds and controls were added to the wells, the plates mixed and returned to the incubator for 2 days. Day of assay the cells were fixed for 20 minutes with 1% formaldehyde and then washed with Tris Buffered Saline (TBS) 3 times, 150 μl of TBS was left in the wells and 50 μl of goat serum (Invitrogen) was added, the plates mixed and incubated for 1 hour at room temperature. The plates were flicked and the cells incubated with the monoclonal Antibody to GM3 (NeuAc) (Cosmo) for 45 minutes as room temperature. The plates were then washed 3 times with TBS, leaving 150 μl of TBS in the wells and Peroxidase AffinPure F (ab′) 2 frag Gt Anti-mouse IgM, μ Chain Specific (Jackson Immuno Research) was added in 50 μl, the plates mixed and incubated for 45 minutes at room temperature. The plates were washed 3 times with TBS, flicked and blotted and 100 μl of Quantablu (Pierce) was added to the wells and incubated for 1 hour then read on a Fluorometer at Ex 325 and Em 420. The data was then analyzed using standard programs.
Take `O=C(N[C@H](CN1CCCC1)[C@H](O)c1ccc2c(c1)OCCO2)c1cc2ccccc2s1` [Compound 5, N-((1R,2R)-1-(2,3-dihydrobenzo[β][1,4]dioxin-6-yl)-1-hydroxy-3-(pyrrolidin-1-yl)propan-2-yl)benzo[b]thiophene-2-carboxamide]: the IC50 fell in the range of 100 to 1000 nM. With `O=C(NCc1ccccc1)N[C@H](CN1CCCC1)[C@H](O)c1ccc2c(c1)OCCO2` [Compound 6, 1-benzyl-3-((1R,2R)-1-(2,3-dihydrobenzo[β][1,4]dioxin-6-yl)-1-hydroxy-3-(pyrrolidin-1-yl)propan-2-yl)urea], the IC50 was in the range of 100 to 1000 nM. The figure for `CCCCCCCCCCCCNC(=O)N[C@H](CN1CCCC1)[C@H](O)c1ccc2c(c1)OCCO2` [Compound 7, 1-((1R,2R)-1-(2,3-dihydrobenzo[β][1,4]dioxin-6-yl)-1-hydroxy-3-(pyrrolidin-1-yl)propan-2-yl)-3-dodecylurea] is at most 100 nM; for `C[C@H](NC(=O)N[C@H](CN1CCCC1)[C@H](O)c1ccc2c(c1)OCCO2)c1ccccc1` [Compound 10, 1-((1R,2R)-1-(2,3-dihydrobenzo[β][1,4]dioxin-6-yl)-1-hydroxy-3-(pyrrolidin-1-yl)propan-2-yl)-3-((S)-1-phenylethyl)urea] it is 100 to 1000 nM; for `O=C(CSc1ccccc1)N[C@H](CN1CCCC1)[C@H](O)c1ccc2c(c1)OCCO2` [Compound 11, N-((1R,2R)-1-(2,3-dihydrobenzo[β][1,4]dioxin-6-yl)-1-hydroxy-3-(pyrrolidin-1-yl)propan-2-yl)-2-(phenylthio)acetamide] it is at most 100 nM. Consider `O=C(N[C@H](CN1CCCC1)[C@H](O)c1ccc2c(c1)OCCO2)c1ccc(-c2ccccc2)cc1` [Compound 12, N-((1R,2R)-1-(2,3-dihydrobenzo[β][1,4]dioxin-6-yl)-1-hydroxy-3-(pyrrolidin-1-yl)propan-2-yl)biphenyl-4-carboxamide], for which the IC50 lay within 100 to 1000 nM. In the case of `O=C(NCc1ccc(F)cc1)N[C@H](CN1CCCC1)[C@H](O)c1ccc2c(c1)OCCO2` [Compound 17, 1-((1R,2R)-1-(2,3-dihydrobenzo[β][1,4]dioxin-6-yl)-1-hydroxy-3-(pyrrolidin-1-yl)propan-2-yl)-3-(4-fluorobenzyl)urea] it was at most 100 nM; in that of `O=C(N[C@H](CN1CCCC1)[C@H](O)c1ccc2c(c1)OCCO2)c1ccc2sccc2c1` [Compound 19, N-((1R,2R)-1-(2,3-dihydrobenzo[β][1,4]dioxin-6-yl)-1-hydroxy-3-(pyrrolidin-1-yl)propan-2-yl)benzo[b]thiophene-5-carboxamide], 100 to 1000 nM.

Regarding `O=C(Cc1ccc(-c2ccccc2)cc1)N[C@H](CN1CCCC1)[C@H](O)c1ccc2c(c1)OCCO2` [Compound 23, 2-(biphenyl-4-yl)-N-((R,2R)-1-(2,3-dihydrobenzo[β][1,4]dioxin-6-yl)-1-hydroxy-3-(pyrrolidin-1-yl)propan-2-yl)acetamide], the IC50 is at most 100 nM. On to `O=C(Cc1ccc(Oc2ccccc2)cc1)N[C@H](CN1CCCC1)[C@H](O)c1ccc2c(c1)OCCO2` [Compound 24, N-((1R,2R)-1-(2,3-dihydrobenzo[β][1,4]dioxin-6-yl)-1-hydroxy-3-(pyrrolidin-1-yl)propan-2-yl)-2-(4-phenoxyphenyl)acetamide], for which the IC50 fell in the range of 100 to 1000 nM. Regarding `O=C(N[C@H](CN1CCCC1)[C@H](O)c1ccc2c(c1)OCCO2)[C@@H](O)Cc1ccccc1` [Compound 25, (S)—N-((1R,2R)-1-(2,3-dihydrobenzo[β][1,4]dioxin-6-yl)-1-hydroxy-3-(pyrrolidin-1-yl)propan-2-yl)-2-hydroxy-3-phenylpropanamide], the IC50 was in the range of 100 to 1000 nM. The figure for `O=C(CCOc1ccccc1)N[C@H](CN1CCCC1)[C@H](O)c1ccc2c(c1)OCCO2` [Compound 27, N-((1R,2R)-1-(2,3-dihydrobenzo[β][1,4]dioxin-6-yl)-1-hydroxy-3-(pyrrolidin-1-yl)propan-2-yl)-3-phenoxypropanamide] is at most 100 nM; for `O=C(N[C@H](CN1CCCC1)[C@H](O)c1ccc2c(c1)OCCO2)C(=O)c1ccccc1` [Compound 31, N-((1R,2R)-1-(2,3-dihydrobenzoall [1,4]dioxin-6-yl)-1-hydroxy-3-(pyrrolidin-1-yl)propan-2-yl)-2-oxo-2-phenylacetamide] it is 100 to 1000 nM; for `O=C(CCSc1ccccc1)N[C@H](CN1CCCC1)[C@H](O)c1ccc2c(c1)OCCO2` [Compound 32, N-((1R,2R)-1-(2,3-dihydrobenzo[β][1,4]dioxin-6-yl)-1-hydroxy-3-(pyrrolidin-1-yl)propan-2-yl)-3-(phenylthio)propanamide] it is at most 100 nM. Turning to `Cc1ccccc1CC(=O)N[C@H](CN1CCCC1)[C@H](O)c1ccc2c(c1)OCCO2` [Compound 35, N-((1R,2R)-1-(2,3-dihydrobenzo [β][1,4]dioxin-6-yl)-1-hydroxy-3-(pyrrolidin-1-yl)propan-2-yl)-2-o-tolylacetamide], the IC50 was 1000 to 3000 nM. The figure for `Cc1cccc(CC(=O)N[C@H](CN2CCCC2)[C@H](O)c2ccc3c(c2)OCCO3)c1` [Compound 36, N-((1R,2R)-1-(2,3-dihydrobenzo[b][1,4]dioxin-6-yl)-1-hydroxy-3-(pyrrolidin-1-yl)propan-2-yl)-2-m-tolylacetamide] is 100 to 1000 nM. The figure for `O=C(CSCc1ccccc1)N[C@H](CN1CCCC1)[C@H](O)c1ccc2c(c1)OCCO2` [Compound 39, 2-(benzylthio)-N-((1R,2R)-1-(2,3-dihydrobenzo[β][1,4]dioxin-6-yl)-1-hydroxy-3-(pyrrolidin-1-yl)propan-2-yl)acetamide] is at most 100 nM; for `O=C(NCc1ccc(Br)cc1)N[C@H](CN1CCCC1)[C@H](O)c1ccc2c(c1)OCCO2` [Compound 40, 1-(4-bromobenzyl)-3-((1R,2R)-1-(2,3-dihydrobenzo[β][1,4]dioxin-6-yl)-1-hydroxy-3-(pyrrolidin-1-yl)propan-2-yl)urea] it is at most 100 nM; for `COc1ccc(CNC(=O)N[C@H](CN2CCCC2)[C@H](O)c2ccc3c(c2)OCCO3)cc1` [Compound 41, 1-((1R,2R)-1-(2,3-dihydrobenzo[β][1,4]dioxin-6-yl)-1-hydroxy-3-(pyrrolidin-1-yl)propan-2-yl)-3-(4-methoxybenzyl)urea] it is at most 100 nM.

Take `Cc1ccc(CNC(=O)N[C@H](CN2CCCC2)[C@H](O)c2ccc3c(c2)OCCO3)cc1` [Compound 42, 1-((1R,2R)-1-(2,3-dihydrobenzo[β][1,4]dioxin-6-yl)-1-hydroxy-3-(pyrrolidin-1-yl)propan-2-yl)-3-(4-methylbenzyl)urea]: the IC50 is at most 100 nM. The figure for `O=C(NCc1ccc(Cl)cc1)N[C@H](CN1CCCC1)[C@H](O)c1ccc2c(c1)OCCO2` [Compound 43, 1-(4-chlorobenzyl)-3-((1R,2R)-1-(2,3-dihydrobenzo[β][1,4]dioxin-6-yl)-1-hydroxy-3-(pyrrolidin-1-yl)propan-2-yl)urea] is at most 100 nM. In the case of `O=C(Cc1ccc(-c2cccnc2)cc1)N[C@H](CN1CCCC1)[C@H](O)c1ccc2c(c1)OCCO2` [Compound 47, N-((1R,2R)-1-(2,3-dihydrobenzo[β][1,4]dioxin-6-yl)-1-hydroxy-3-(pyrrolidin-1-yl)propan-2-yl)-2-(4-(pyridin-3-yl)phenyl)acetamide] it was 100 to 1000 nM.

With `O=C(Cc1ccc(-c2ccc(Cl)cc2)cc1)N[C@H](CN1CCCC1)[C@H](O)c1ccc2c(c1)OCCO2` [Compound 48, 2-(4′-chlorobiphenyl-4-yl)-N-((1R, 2R)-1-(2,3-dihydrobenzo[β][1,4]dioxin-6-yl)-1-hydroxy-3-(pyrrolidin-1-yl)propan-2-yl)acetamide], the IC50 is at most 100 nM.

Turning to `O=C(Cc1cccc(C(F)(F)F)c1)N[C@H](CN1CCCC1)[C@H](O)c1ccc2c(c1)OCCO2` [Compound 51, N-((1R,2R)-1-(2,3-dihydrobenzo[β][1,4]dioxin-6-yl)-1-hydroxy-3-(pyrrolidin-1-yl)propan-2-yl)-2-(3-(trifluoromethyl)phenyl)acetamide], the IC50 lay within 100 to 1000 nM. As to `O=C(Cc1cccc(F)c1)N[C@H](CN1CCCC1)[C@H](O)c1ccc2c(c1)OCCO2` [Compound 53, N-((1R,2R)-1-(2,3-dihydrobenzo[β][1,4]dioxin-6-yl)-1-hydroxy-3-(pyrrolidin-1-yl)propan-2-yl)-2-(3-fluorophenyl)acetamide], the IC50 fell in the range of 1000 to 3000 nM. The figure for `COc1cccc(OCCC(=O)N[C@H](CN2CCCC2)[C@H](O)c2ccc3c(c2)OCCO3)c1` [Compound 54, N-((1R,2R)-1-(2,3-dihydrobenzo[β][1,4]dioxin-6-yl)-1-hydroxy-3-(pyrrolidin-1-yl)propan-2-yl)-3-(3-methoxyphenoxy)propanamide] is at most 100 nM.

With `O=C(CCOc1cc(Cl)ccc1Cl)N[C@H](CN1CCCC1)[C@H](O)c1ccc2c(c1)OCCO2` [Compound 55, 3-(2,5-dichlorophenoxy)-N-((1R,2R)-1-(2,3-dihydrobenzo[β][1,4]dioxin-6-yl)-1-hydroxy-3-(pyrrolidin-1-yl)propan-2-yl)propanamide], the IC50 was at most 100 nM.

As for `O=C(CCOc1ccc(Cl)cc1)N[C@H](CN1CCCC1)[C@H](O)c1ccc2c(c1)OCCO2` [Compound 57, 3-(4-chlorophenoxy)-N-((1R,2R)-1-(2,3-dihydrobenzo[β][1,4]dioxin-6-yl)-1-hydroxy-3-(pyrrolidin-1-yl)propan-2-yl)propanamide], the IC50 was at most 100 nM.
